Test results reported in US10524472B2, “Elicitor peptides having disrupted hypersensitive response box and use thereof” (Plant Health Care, Inc., priority 2014, dated 2020).
Marks after values point to notes of the source that are not given here.

Columns and labels:
corn plants = assay: Growth tests after foliar spray, corn; assay type: in vivo
Description: (§1) Soy seeds (or corn seeds, as indicated) were planted in flats with 2 seeds per cell within the flat at a greenhouse facility. The seeds were allowed to germinate and the smaller plant is culled, leaving one plant per cell. Once the first true leaves are fully expanded and the second leaves are beginning to expand, the plants were initially measured for height. This was performed by stretching the highest leaf upward and measuring the distance to the soil. Peptides were dissolved in water at the indicated concentrations (Table 21 below). The plants were then treated with a foliar spray using widely available spray bottles until liquid was dripping from the leaves. Six flats of 14 plants each were treated per condition (peptide or control). Designated untreated control plants were sprayed with water. The plants were allowed to grow for 14 days. The height of the plants was again measured and compared to the original height to quantify growth. Finally, the plants were harvested by removing the shoots (all above-ground material). For some experiments, this was weighed upon harvesting to determine the fresh mass (including water weight). The shoots were then dried at 70° C. for 72 hours, and again weighed to determine dry biomass. Although this method uses a similar measure (growth) as in Example 3 above, the treatment method is different (seed soak vs. foliar spray). As a result, the experimental outcomes may diverge.

[1] = test system: tobacco mosaic virus (TMV); assay: Induction of resistance to tobacco mosaic virus in tobacco; assay type: in vivo; settings: for Effectiveness Covered (%) (decline in TMV lesions vs UTC, systemic response) / Effectiveness Uncovered (%) (decline in TMV lesions vs UTC, local response): TMV 3 days post-treatment, scored 3 days after inoculation
[2] = test system: soy plants (leaf tissue discs); assay: Peroxide response, ferric-xylenol orange assay on soy leaf discs; assay type: cell-based; settings: 0.5 ug/ml peptide, one hour, absorbance at 595 nm vs blank
Description: (§2) The ferric-xylenol orange complex assay for hydrogen peroxide (Gay et al., Analytical Biochemistry 273:149-55 (1999), which is hereby incorporated by reference in its entirety) was used to determine peroxide production by plant leaf tissue. Briefly, reagent A was prepared by mixing 10 mg of ferrous ammonium sulfate with 133 uL of sulfuric acid in a total volume of 1 mL with water. Reagent B was prepared by mixing 2 g of sorbitol with 9.34 mg of xylenol orange in 80 ml of water. 1M hydrochloric acid was slowly added until the solution turned yellow. The solution was then diluted with water to a total volume of 100 mL, and stored in a dark bottle at 4° C.
(§3) Leaves from either tobacco plants (plants grown to 6 true leaves) or soy plants (plants grown to 6 true leaves) were used for the assay. The leaf was first removed from the plant and placed on a paper towel. 0.5 cm leaf tissue circles were then removed from the leaf using a leather punch tool. These discs were then placed into the wells of a 96-well plate. […] of water was added to each disc. The plate was covered with parafilm and rested for 12 hours in the dark. The excess water was then removed and the wells washed with an additional 250 uL of water. The washes were then removed from the wells and replaced with 105 uL of a 0.5 ug/ml solution of peptide in water or water blank, generally in quadruplicate. Where peptide solubility was a problem, pH buffer was added to both the blank and peptide samples. Leaf discs were incubated with the peptides for one hour under fluorescent lighting. 50 ul of the solution from each leaf sample was removed to a new well for chemical analysis.
(§4) Just prior to analysis, reagents A and B were freshly mixed in a 1:100 ratio to produce the assay reagent. 200 ul of this mixture was added to each well containing 50 ul of leaf-treated solution. The plate was incubated in the dark for 20 minutes and the absorbance at 595 nm was detected. Results were analyzed using a two-tailed Student's T-test. The results were divided into several response classes. XR++ indicated a positive response with absorbance >0.05 units above the negative control and a Student's T-test p<0.05. XR+ indicated an absorbance <0.05 units above the blank and a Student's T-test p<0.05. XR weak indicated a response >0.02 units above the negative control with a p-value that was not significant. XR− indicated an absorbance within 0.02 units of the negative control. It should be noted that there can be significant biological variability in the peroxide response due to plant age, location of the disc within the leaf, and other factors. As a result, p-values from the T-test are a guide and not an absolute inclusion criterion.

[3] = test system: tobacco plants (leaf tissue discs); assay: Peroxide response, ferric-xylenol orange assay on tobacco leaf discs; assay type: cell-based; settings: 0.5 ug/ml peptide, one hour, absorbance at 595 nm vs blank
Description: as §2, §3, §4

soybean seeds = assay: Root & shoot growth analysis after seed soak, soy; assay type: in vivo; settings: for Root (root growth index, percentage increase over untreated control) / Shoot (shoot length, percentage increase over untreated control): soy, 12-14 days
Description: (§5) Peptides were tested for biological effects on the allocation of growth resources to the shoot (above ground) and root (below ground). Peptides were dissolved at 0.2, 2, or 5 μg/ml in a total volume of 100 ml deionized water. Corn or soybean seeds were then soaked for one hour in the peptide solution. Untreated control (UTC) plants were soaked in deionized water. Clear plastic 300 ml beverage cups (Solo®, Dart Container Corporation) were prepared for planting by marking the bottom with a cross, dividing the bottom into four equal quadrants. The cups were then filled with Sunshine Mix #1 soil (SunGro Horticulture) sieved to ¼″. 100 ml of water was added to the soil. Treated seeds were then planted by pressing the seed lightly into the top of the soil. The seeds were then covered with an additional 50 ml of loose soil. Seeds were allowed to germinate and grow for 12-14 days.
The length of the shoot was measured as the distance from the soil to the lightly stretched tip of the highest leaf for each plant. […] Stunting was defined as lacking a fully expanded true leaf at time of data collection or having an expanded true leaf judged by eye to be <½ the average leaf area of the treatment group. Generally, 30 seeds were planted per treatment group and 15-25 plants were used for data collection.
Root growth was estimated by counting the number of times that a primary root crosses the quadrant marks on the bottom of the cup. These were often observed along the bottom circumference of the cup, although some were visible along the side of the container and were counted as if crossing a vertical extension of the quadrant line. This number was divided by 4 to produce a root growth index.
Each number indicates the percentage increase over the untreated control values.

Soy plants = assay: Growth tests after foliar spray, soy; assay type: in vivo; settings: for growth, dry biomass and fresh mass (text summary of Table 21): foliar spray; for Dry biomass increase (%) / Growth increase (%): soy, 14 days
Description: as §1

Corn seeds = assay: Root & shoot growth analysis after seed soak, corn; assay type: in vivo; settings: seed soak 0.2 μg/ml, 12-14 days
Description: as §5
The length of the shoot was measured as the distance from the soil to the lightly stretched tip of the highest leaf for each plant. […]
Root growth was estimated by counting the number of times that a primary root crosses the quadrant marks on the bottom of the cup. These were often observed along the bottom circumference of the cup, although some were visible along the side of the container and were counted as if crossing a vertical extension of the quadrant line. […]

[4] = foliar spray 2.0 ug/ml, 14 days

NQGISEKQLDQLLTQLI (P1-29)
growth benefit in corn (corn plants; foliar spray): modest growth benefit | Dry biomass increase (%) (corn plants; [4]): 5.7% | Fresh mass increase (%) (corn plants; [4]): 5.1% | Growth increase (%) (corn plants; [4]): 7.8% | Effectiveness Covered (%) (decline in TMV lesions vs UTC, systemic response) ([1]; spray 10 ug/ml): 18% | Effectiveness Uncovered (%) (decline in TMV lesions vs UTC, local response) ([1]; spray 10 ug/ml): 44%

QAGPQSANKTGNVDDANNQDPAQALEQLLEDLV (P14-22A,26E)
Peroxide Response, Soy [2]: Weak+ | Effectiveness Covered (%) (decline in TMV lesions vs UTC, systemic response) ([1]; spray 20 ug/ml): 85* % | Effectiveness Uncovered (%) (decline in TMV lesions vs UTC, local response) ([1]; spray 20 ug/ml): 91* %

QAGPQSANKTGNVDDANNQDPEQALEQLLEDLV (P14-22E,26E)
Peroxide Response, Tobacco [3]: Weak+ | Effectiveness Covered (%) (decline in TMV lesions vs UTC, systemic response) ([1]; spray 20 ug/ml): 62% | Effectiveness Uncovered (%) (decline in TMV lesions vs UTC, local response) ([1]; spray 20 ug/ml): 74* %

QAGPQSANKTGNVDDANNQDPLQALEQLLEDLV (P14-22L,26E)
Peroxide Response, Tobacco [3]: Weak+ | Effectiveness Covered (%) (decline in TMV lesions vs UTC, systemic response) ([1]; spray 20 ug/ml): 91* % | Effectiveness Uncovered (%) (decline in TMV lesions vs UTC, local response) ([1]; spray 20 ug/ml): 70* %

QAGPQSANKTGNVDDANNQDPLQALLQAAEDLV (P14-22L,28-29A)
Peroxide Response, Soy [2]: Weak+ | Effectiveness Covered (%) (decline in TMV lesions vs UTC, systemic response) ([1]; spray 10 ug/ml): 84* % | Effectiveness Uncovered (%) (decline in TMV lesions vs UTC, local response) ([1]; spray 10 ug/ml): 83* %

QAGPQSANKTGNVDDANNQDPLQALLQLLEDLV (P14-22L,26L)
Peroxide Response, Soy [2]: Weak+ | Effectiveness Covered (%) (decline in TMV lesions vs UTC, systemic response) ([1]; spray 20 ug/ml): 67* % | Effectiveness Uncovered (%) (decline in TMV lesions vs UTC, local response) ([1]; spray 20 ug/ml): 65* %

QAGPQSANKTGNVDDANNQDPMQALMQLLEDLV (P14)
Peroxide Response, Tobacco [3]: Weak+ | root growth (text summary of Table 20) (soybean seeds; seed soak): Increased root growth | Root (root growth index, percentage increase over untreated control) (soybean seeds; seed soak 5.0 μg/ml): 24.9%* | Shoot (shoot length, percentage increase over untreated control) (soybean seeds; seed soak 5.0 μg/ml): 4.4% | growth, dry biomass and fresh mass (text summary of Table 21) (Soy plants): increases in growth and dry biomass | Dry biomass increase (%) (Soy plants; foliar spray 2.0 ug/ml): 1.6% | Growth increase (%) (Soy plants; foliar spray 2.0 ug/ml): 25.8% | Dry biomass increase (%) (Soy plants; foliar spray 5.0 ug/ml): 3% | Growth increase (%) (Soy plants; foliar spray 5.0 ug/ml): 31.4%

SEEELQQLLKLFSEIL (P3-5)
Peroxide Response, Tobacco [3]: Weak + | Effectiveness Covered (%) (decline in TMV lesions vs UTC, systemic response) ([1]; spray 10 ug/ml): 94* % | Effectiveness Uncovered (%) (decline in TMV lesions vs UTC, local response) ([1]; spray 10 ug/ml): 66%

SQGISEKQADQLLSQLIQALLQP (P4-14S-9A)
Root (root growth index, percentage increase over untreated control) (Corn seeds): 4.8% | Shoot (shoot length, percentage increase over untreated control) (Corn seeds): 3.9%* | shoot growth (Table 20) (soybean seeds; seed soak, p14a soy at 0.2 μg/ml): increased shoot growth | Root (root growth index, percentage increase over untreated control) (soybean seeds; seed soak 2.0 μg/ml): 4.3% | Shoot (shoot length, percentage increase over untreated control) (soybean seeds; seed soak 2.0 μg/ml): 5.0% | Root (root growth index, percentage increase over untreated control) (soybean seeds; seed soak 5.0 μg/ml): 2.5% | Shoot (shoot length, percentage increase over untreated control) (soybean seeds; seed soak 5.0 μg/ml): 6.5%* | growth, dry biomass and fresh mass (text summary of Table 21) (Soy plants): increases in growth and dry biomass | Dry biomass increase (%) (Soy plants; foliar spray 2.0 ug/ml): 10.8% | Growth increase (%) (Soy plants; foliar spray 2.0 ug/ml): 11.9% | TMV response / effectiveness against TMV infection (summary of Table 22) ([1]; foliar spray): produced the best results | Effectiveness Covered (%) (decline in TMV lesions vs UTC, systemic response) ([1]; spray 5.0 ug/ml): 86* % | Effectiveness Uncovered (%) (decline in TMV lesions vs UTC, local response) ([1]; spray 5.0 ug/ml): 84* %

SQGISEKQDDQLLSQLIQALLQP (P4-14S-9D)
Peroxide Response, Soy [2]: Weak+ | Effectiveness Covered (%) (decline in TMV lesions vs UTC, systemic response) ([1]; spray 10 ug/ml): 52% | Effectiveness Uncovered (%) (decline in TMV lesions vs UTC, local response) ([1]; spray 10 ug/ml): 89%

SQGISEKQLDQLDSQLIQALLQP (P4-14S-13D)
Peroxide Response, Tobacco [3]: Weak+

SQGISEKQLDQLFSQLIQALLQP (P4-14S-13F)
Peroxide Response, Tobacco [3]: Weak+

SQGISEKQLDQLQSQLIQALLQP (P4-14S-13Q)
Peroxide Response, Tobacco [3]: Weak+ | Effectiveness Covered (%) (decline in TMV lesions vs UTC, systemic response) ([1]; spray 10 ug/ml): 61* % | Effectiveness Uncovered (%) (decline in TMV lesions vs UTC, local response) ([1]; spray 10 ug/ml): 40%

SQGISEKQSDQLLSQLIQALLQP (P4-14S-9S)
Peroxide Response, Tobacco [3]: Weak+
